Test results published in ChEMBL document CHEMBL1135950, “Decoding region bubble size and aminoglycoside antibiotic binding” (Bioorg Med Chem Lett, 2002).

Key:
Format in all cases: nucleic-acid assay, Homo sapiens
[1] = target: Nucleic Acid; experiment: Dissociation constant for binding to mitochondrial 12S rRNA construct M2 was determined
[2] = test system: Nucleic Acid; experiment: Dissociation constant for binding to mitochondrial 12S rRNA construct M1 was determined; NB= No binding
[3] = target: Nucleic Acid; experiment: Dissociation constant for binding to mitochondrial 12S rRNA construct M5 was determined
[4] = target: Nucleic Acid; experiment: Dissociation constant for binding to mitochondrial 12S rRNA construct M3 was determined
[5] = target: Nucleic Acid; experiment: Dissociation constant for binding to mitochondrial 12S rRNA construct M4 was determined

Row | Kd [1] | Kd [2] | Kd [3] | Kd [4] | Kd [5] | SMILES
1 | 0.27 µM | Not Active | 0.33 µM | 260 nM | 750 nM | CN(C)c1ccc2c(-c3ccc(C(=O)NCC4O[C@H](O[C@@H]5C(O)[C@H](O[C@@H]6C(O)[C@H](N)CC(N)[C@H]6O[C@H]6OC(CO)[C@@H](O)[C@H](O)C6N)O[C@@H]5CO)[C@H](N)C(O)[C@@H]4O)cc3C(=O)[O-])c3ccc(=[N+](C)C)cc-3oc2c1 (stereo partly specified)
2 | 0.14 µM |  | 3.97 µM | 120 nM | 160 nM | NC[C@@H]1O[C@H](O[C@H]2[C@@H](O)[C@H](O[C@@H]3[C@@H](O)[C@H](N)C[C@H](N)[C@H]3O[C@H]3O[C@H](CN)[C@@H](O)[C@H](O)[C@H]3N)O[C@@H]2CO)[C@H](N)[C@@H](O)[C@@H]1O [FRAMYCETIN]
3 | 3.46 µM |  | 2.64 µM | 2080 nM | 13600 nM | NC[C@H]1O[C@H](O[C@H]2[C@H](O)[C@@H](O[C@H]3O[C@H](CO)[C@@H](O)[C@H](N)[C@H]3O)[C@H](N)C[C@@H]2N)[C@H](O)[C@@H](O)[C@@H]1O [KANAMYCIN]
4 | 3.26 µM |  | 5.37 µM | 430 nM | 2910 nM | NC[C@H]1O[C@H](O[C@H]2[C@H](O)[C@@H](O[C@H]3O[C@H](CO)[C@@H](O)[C@H](N)[C@H]3O)[C@H](N)C[C@@H]2N)[C@H](N)C[C@@H]1O [TOBRAMYCIN]

Row | SMILES | Kd [1] | Kd [2] | Kd [3] | Kd [4] | Kd [5]
5 | NC[C@@H]1O[C@H](O[C@H]2[C@@H](O)[C@H](O[C@@H]3[C@@H](O)[C@H](N)C[C@H](N)[C@H]3O[C@H]3O[C@H](CO)[C@@H](O)[C@H](O)[C@H]3N)O[C@@H]2CO)[C@H](N)[C@@H](O)[C@@H]1O [PAROMOMYCIN] | 3.83 µM |  | 5.85 µM | 440 nM | 12600 nM
